Test results taken from US20090221829A1 (priority 2005, published 2009).
≈ marks a conversion by molar mass, not a printed value.

What was measured:
[1] = test system: various kinds of Candida; experiment: MIC (Minimal Inhibitory Concentration) data; format: cell-based; details: unit assumed
[2] = test system: Candida albicans(KCTC 1940), Aspergillus niger (ATCC 9642) and Saccharomyces cerevisiae; experiment: Relative antifungal activity by agar dilution method (vs Miconazole); format: cell-based;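 also: scores 5 to 7 mean a lower fungicidal concentration than Miconazole so higher is more potent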
From the text: Novel compounds represented by the above chemical formula (I), and the relative activities in accordance with the agar dilution method in Sabouraud dextrose agar media, Czapek agar media and Yeast Extract-Peptone-Dextrose agar media for Candida albicans(KCTC 1940), Aspergillus niger (ATCC 9642) and Saccharomyces cerevisiae are described respectively in following Table 1.

[3] = agar dilution method, fungicidal concentration relative to control drug Miconazole (=4)
[4] = antifungal activity relative to Miconazole, agar dilution

Row | Structure (SMILES) | Relative Activity [2, 3] | other results
1 | C[C@@H]1[C@H](O)[C@@H](C)/C=C/C=C/C=C/C=C/C=C/C=C/C=C/[C@H](O[C@@H]2O[C@H](C)[C@@H](O)[C@H](N)[C@@H]2O)C[C@@H]2O[C@](O)(C[C@@H](O)C[C@@H](O)[C@H](O)CC[C@@H](O)C[C@@H](O)CC(=O)O[C@H]1C)C[C@H](O)[C@H]2C(=O)O [Amphotericin B, reference compound] |  | MIC ([1]; C. albicans ATCC 11651): 1.56 µg/mL (≈ 1.69 µM); MIC ([1]; C. albicans ATCC 28838): 3.12 µg/mL (≈ 3.38 µM); MIC ([1]; C. albicans IFO 1385): 1.56 µg/mL (≈ 1.69 µM); MIC ([1]; C. albicans OY-003): 0.78 µg/mL (≈ 0.844 µM); MIC ([1]; C. albicans OY-019): 0.4 µg/mL (≈ 0.433 µM); MIC ([1]; C. albicans U.K): 3.12 µg/mL (≈ 3.38 µM); MIC ([1]; C. albicnas ATCC 10231): 1.56 µg/mL (≈ 1.69 µM); MIC ([1]; C. glabrata): 1.56 µg/mL (≈ 1.69 µM); MIC ([1]; C. glulliermondi): 1.56 µg/mL (≈ 1.69 µM); MIC ([1]; C. krusei (KCTC7273)): 0.78 µg/mL (≈ 0.844 µM); MIC ([1]; C. parapsilosis): 3.12 µg/mL (≈ 3.38 µM)
2 | CCCCCC1=[N+](Cc2ccccc2F)CCc2cc(OC)ccc21.[Cl-] [Compound No. 85, 1-n-pentyl-2-(2-fluorophenyl)methyl-3,4-dihydro-6-methoxyisoquinolinium chloride] | 5 | 
3 | CCCCCCC1=[N+](Cc2ccccc2F)CCc2cc(OC)ccc21.[Cl-] [Compound No. 86, 1-n-hexyl-2-(2-fluorophenyl)methyl-3,4-dihydro-6-methoxyisoquinolinium chloride] | 5 | 
4 | CCCCCCCC1=[N+](Cc2ccccc2F)CCc2cc(OC)ccc21.[Cl-] [Compound No. 87, 1-n-heptyl-2-(2-fluorophenyl)methyl-3,4-dihydro-6-methoxyisoquinolinium chloride] | 5 | 
5 | CCCCCCCCCCCC1=[N+](Cc2ccccc2F)CCc2cc(OC)ccc21.[Cl-] [Compound No. 88, 1-n-undecyl-2-(2-fluorophenyl)methyl-3,4-dihydro-6-methoxyisoquinolinium chloride] | 2 | 
6 | CCCCCCCCCCCCCCCC1=[N+](Cc2ccccc2F)CCc2cc(OC)ccc21.[Cl-] [Compound No. 89, 1-n-pentadecyl-2-(2-fluorophenyl)methyl-3,4-dihydro-6-methoxyisoquinolinium chloride] | 1 | 
7 | COc1ccc2c(c1)CC[N+](Cc1ccccc1F)=C2c1ccccc1F.[Cl-] [Compound No. 90, 1-(2-fluorophenyl)-2-(2-fluorophenyl)methyl-3,4-dihydro-6-methoxyisoquinolinium chloride] | 6 | 
8 | COc1ccc2c(c1)CC[N+](Cc1ccccc1F)=C2c1ccc(C(C)(C)C)cc1.[Cl-] [Compound No. 91, 1-(4-t-butylphenyl)-2-(2-fluorophenyl)methyl-3,4-dihydro-6-methoxyisoquinolinium chloride] | 6 | 
9 | CC1=[N+](Cc2ccc(C(F)(F)F)cc2)CCc2cc3c(cc21)OCO3.[Cl-] [Compound No. 107, 1-methyl-2-(4-trifluoromethylphenyl)methyl-3,4-dihydro-6,7-methylenedioxyisoquinolinium chloride] | 6 | 
10 | CCCCCCCC1=[N+](Cc2ccc(C(F)(F)F)cc2)CCc2cc3c(cc21)OCO3.[Cl-] [Compound No. 108, 1-n-heptyl-2-(4-trifluoromethylphenyl)methyl-3,4-dihydro-6,7-methylenedioxyisoquinolinium chloride] | 4 | 
11 | CCCCCCCCCCCCCCCC1=[N+](Cc2ccc(C(F)(F)F)cc2)CCc2cc3c(cc21)OCO3.[Cl-] [Compound No. 109, 1-n-pentadecyl-2-(4-trifluoromethylphenyl)methyl-3,4-dihydro-6,7-methylenedioxyisoquinolinium chloride] | 1 | 
12 | CC(C)(C)c1ccc(C2=[N+](Cc3ccc(C(F)(F)F)cc3)CCc3cc4c(cc32)OCO4)cc1.[Cl-] [Compound No. 110, 1-(4-t-butylphenyl)-2-(4-trifluoromethylphenyl)methyl-3,4-dihydro-6,7-methylenedioxyisoquinolinium chloride] | 6 | 
13 | CCCCCCCC1=[N+](Cc2ccc(F)c(F)c2)CCc2cc3c(cc21)OCO3.[Cl-] [Compound No. 112, 1-n-heptyl-2-(3,4-difluorophenyl)methyl-3,4-dihydro-6,7-methylenedioxyisoquinolinium chloride] | 4 | 
14 | CCCCCCCCCCCCCCCC1=[N+](Cc2ccc(F)c(F)c2)CCc2cc3c(cc21)OCO3.[Cl-] [Compound No. 113, 1-n-pentadecyl-2-(3,4-difluorophenyl)methyl-3,4-dihydro-6,7-methylenedioxyisoquinolinium chloride] | 1 | 
15 | CC(C)(C)c1ccc(C2=[N+](Cc3ccc(F)c(F)c3)CCc3cc4c(cc32)OCO4)cc1.[Cl-] [Compound No. 114, 1-(4′-t-butylphenyl)-2-(3,4-difluorophenyl)methyl-3,4-dihydro-6,7-methylenedioxyisoquinolinium chloride] | 6 | 
16 | CCCCCCCCCCCC1=[N+](c2ccc(C(C)(C)C)cc2)CCc2cc(CNC(=O)OCC)c(OC)cc21.[Br-] [Compound No. 116, ethyl 3,4-dihydro-7-methoxy-6-(4-t-butylphenyl)-1-undecylisoquinolinium-6-ylmethylcabamate bromide] | 2 | 
17 | CCCCCCCCCCCC1=[N+](c2ccc(C(F)(F)F)cc2)CCc2cc(CNC(=O)OCC)ccc21.[Br-] [Compound No. 117, Ethyl 3,4-dihydro-1-undecylisoquinolinium-2-(4-trifluoromethylphenyl)-6-ylmethylcabamate bromide] | 4 | 
18 | CCCCCCCCCCCC1=[N+](Cc2ccc(NC(=O)OCC)c(NC(=O)OCC)c2)CCc2cc(OC)c(OC)cc21.[Cl-] [Compound No. 122, 6,7-dimethoxy-2-(3,4-bis(ethoxy Carbonylamino)phenyl)methyl-3,4-dihydro-1-undecylisoquinolinium chloride] | 2 | 
19 | CCCC1=[N+](Cc2ccc(C(C)(C)C)cc2)CCc2cc(OC)c(OC)cc21.[Cl-] [Compound No. 123, 1-propyl-2-(4-t-butylphenyl)methyl-3,4-dihydro-6,7-dimethoxyisoquinolinium chloride] | 6 | 
20 | COc1cc2c(cc1OC)C(CCc1ccc(C(C)(C)C)cc1)=[N+](Cc1ccccc1F)CC2 [Compound No. 124, 1-(2-(4-t-butylphenyl))ethyl-2-(2-fluorophenyl)methyl-3,4-dihydro-6,7-dimethoxyisoquinolinium chloride] | 2 | 
21 | COc1ccc(C[N+]2=C(CCc3ccc(C(C)(C)C)cc3)c3cc(OC)c(OC)cc3CC2)cc1OC [Compound No. 125, 1-(2-(4-t-butylphenyl))ethyl-2-(3,4-dimethoxyphenyl)methyl-3,4-dihydro-6,7-dimethoxyisoquinolinium chloride] | 2 | 
22 | COc1cc2c(cc1OC)C(CCc1ccc(C(C)(C)C)cc1)=[N+](Cc1ccc(C(F)(F)F)cc1)CC2.[Cl-] [Compound No. 129, 1-(2-(4-t-butylphenyl))ethyl-2-(4-trifluoromethylphenyl)methyl-3,4-dihydro-6,7-dimethoxy isoquinolinium chloride] | 4 | 
23 | COc1cc2c(cc1OC)C(CCc1ccc(C(C)(C)C)cc1)=[N+](Cc1c(F)c(F)c(F)c(F)c1F)CC2.[Cl-] [Compound No. 130, 1-(2-(4-t-butylphenyl))ethyl-2-(2,3,4,5,6-pentafluorophenyl)methyl-3,4-dihydro-6,7-dimethoxy isoquinolinium chloride] | 4 | 
24 | COc1cc2c(cc1OC)C(CCc1ccc(C(C)(C)C)cc1)=[N+](Cc1c(F)c(F)c(C(F)(F)F)c(F)c1F)CC2.[Cl-] [Compound No. 131, 1-(2-(4-t-butylphenyl))ethyl-2-(2,3,5,6-tetrafluoro-4-trifluoromethylphenyl)methyl-3,4-dihydro-6,7-dimethoxy isoquinolinium chloride] | 4 | 
25 | COc1cc2c(cc1OC)C(CCc1ccc(C(C)(C)C)cc1)=[N+](Cc1cccc(OC)c1OCc1c(F)cccc1Cl)CC2 [Compound No. 133, 1-(2-(4-t-butylphenyl))ethyl-2-(2-(2-chloro-6-fluorobenzyloxy)-3-methoxyphenyl)methyl-3,4-dihydro-6,7-dimethoxyisoquinolinium chloride] | 1 | 
26 | COc1cc2c(cc1OC)C(CCc1ccc(C(C)(C)C)cc1)=[N+](Cc1cccc(OC)c1OCc1cccc(OC)c1OC)CC2.[Cl-] [Compound No. 136, 1-(2-(4-t-butylphenyl))ethyl-2-(2-(2,3-dimethoxybenzyloxy)-3-methoxyphenyl)methyl-3,4-dihydro-6,7-dimethoxy isoquinolinium chloride] | 4 | 
27 | CCCCCCCCCCCC1=[N+](Cc2ccc(C(F)(F)F)cc2)CCc2cc(F)ccc21.[Cl-] [Compound No. 137, 1-undecyl-2-(4-trifluoromethylphenyl)methyl-3,4-dihydro-6-fluoro isoquinolinium chloride] | 1 | 
28 | COc1cc2cc[n+](Cc3c(F)cccc3Cl)cc2cc1OC.[Cl-] [Compound No. 141, 2-(2-chloro-6-fluorophenyl)methyl-6,7-dimethoxyisoquinolinium chloride] |  | Relative Activity [2, 4]: 6
29 | COc1cc2cc[n+](Cc3ccc(C(C)(C)C)cc3)cc2cc1OC.[Cl-] [Compound No. 142, 2-(4-t-butylphenyl)methyl-6,7-dimethoxy-isoquinolinium chloride] |  | Relative Activity [2, 4]: 6
30 | CCCCCCCCCCCc1c2cc(OC)c(OC)cc2cc[n+]1Cc1ccc(C(C)(C)C)cc1.[Cl-] [Compound No. 146, 1-undecyl-2-(4-t-butylphenyl)methyl-6,7-dimethoxyisoquinolinium chloride] |  | Relative Activity [2, 4]: 2
